Test results published in patent US20260262643A1, “HERBICIDAL BENZOXAZINES” (FMC CORPORATION, priority 2022, published 2026).

What was measured:
sedge, umbrella = assay: Test D flooded paddy test; format: in vivo, Cyperus difformis; conditions: 250 g ai/ha, applied to paddy water, visual rating after 13 to 14 days, scale 0 to 100 (0 no effect, 100 complete control)
Summary of the method: (§1)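 At the 2-leaf stage, floodwater 3 cm deep received the test compound; that depth persisted throughout. Plants scored visually 13 to 14 days on, 0 (no effect) to 100 (complete control), dash indicating no result.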

ducksalad = assay: Test D flooded paddy test; format: in vivo, Heteranthera limosa; conditions: 250 g ai/ha, applied to paddy water, visual rating after 13 to 14 days, scale 0 to 100 (0 no effect, 100 complete control)
Summary of the method: as §1

ryegrass, Italian [1] = assay: Test C preemergence; format: in vivo, Lolium multiflorum; conditions: 0 to 100 scale (0 no effect, 100 complete control)
Summary of the method: (§2)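 Soil-applied (pre) and foliar (post, 1–2 leaf, 2–10 cm) sprays; surfactant-containing non-phytotoxic solvent vehicle; loam/sand substrate. Readout: visual % control at 10 d, greenhouse, versus untreated.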

ragweed [2] = assay: Test C preemergence; format: in vivo, Ambrosia artemisiifolia; conditions: 0 to 100 scale (0 no effect, 100 complete control)
Summary of the method: as §2

kochia [3] = assay: Test C postemergence; format: in vivo, Bassia scoparia; conditions: 10 days
Summary of the method: as §2

oat, wild [4] = assay: Test C preemergence; format: in vivo, Avena fatua; conditions: 0 to 100 scale (0 no effect, 100 complete control)
Summary of the method: as §2

green foxtail [5] = assay: Test C postemergence; format: in vivo, Setaria viridis; conditions: 10 days
Summary of the method: as §2

ragweed [6] = assay: Test C postemergence; format: in vivo, Ambrosia artemisiifolia; conditions: 10 days
Summary of the method: as §2

blackgrass [7] = assay: Test C preemergence; format: in vivo, Alopecurus myosuroides; conditions: 0 to 100 scale (0 no effect, 100 complete control)
Summary of the method: as §2

barnyardgrass [8] = assay: Test C postemergence; format: in vivo, Echinochloa crusgalli; conditions: 10 days
Summary of the method: as §2

barnyardgrass [9] = assay: Test D flooded paddy test; format: in vivo, Echinochloa crus-galli; conditions: 250 g ai/ha, applied to paddy water, visual rating after 13 to 14 days, scale 0 to 100 (0 no effect, 100 complete control)
Summary of the method: as §1

corn [10] = assay: Test C preemergence; format: in vivo, Zea mays; conditions: 0 to 100 scale (0 no effect, 100 complete control)
Summary of the method: as §2

horseweed = assay: Test C postemergence; format: in vivo, Erigeron canadensis; conditions: 10 days
Summary of the method: as §2

kochia [11] = assay: Test C preemergence; format: in vivo, Bassia scoparia; conditions: 0 to 100 scale (0 no effect, 100 complete control)
Summary of the method: as §2

ryegrass, Italian [12] = assay: Test C postemergence; format: in vivo, Lolium multiflorum; conditions: 10 days
Summary of the method: as §2

blackgrass [13] = assay: Test C postemergence; format: in vivo, Alopecurus myosuroides; conditions: 10 days
Summary of the method: as §2

corn [14] = assay: Test C postemergence; format: in vivo, Zea mays; conditions: 10 days
Summary of the method: as §2

oat, wild [15] = assay: Test C postemergence; format: in vivo, Avena fatua; conditions: 10 days
Summary of the method: as §2

green foxtail [16] = assay: Test C preemergence; format: in vivo, Setaria viridis; conditions: 0 to 100 scale (0 no effect, 100 complete control)
Summary of the method: as §2

soybean [17] = assay: Test C postemergence; format: in vivo, Glycine max; conditions: 10 days
Summary of the method: as §2

rice = assay: Test D flooded paddy test; format: in vivo, Oryza sativa; conditions: 250 g ai/ha, applied to paddy water, visual rating after 13 to 14 days, scale 0 to 100 (0 no effect, 100 complete control)
Summary of the method: as §1

soybean [18] = assay: Test C preemergence; format: in vivo, Glycine max; conditions: 0 to 100 scale (0 no effect, 100 complete control)
Summary of the method: as §2

barnyardgrass [19] = assay: Test C preemergence; format: in vivo, Echinochloa crusgalli; conditions: 0 to 100 scale (0 no effect, 100 complete control)
Summary of the method: as §2

pigweed, palmer [20] = assay: Test C postemergence; format: in vivo, Amaranthus palmeri; conditions: 10 days
Summary of the method: as §2

pigweed, palmer [21] = assay: Test C preemergence; format: in vivo, Amaranthus palmeri; conditions: 0 to 100 scale (0 no effect, 100 complete control)
Summary of the method: as §2

wheat [22] = assay: Test C postemergence; format: in vivo, Triticum aestivum; conditions: 10 days
Summary of the method: as §2

galium = assay: Test C postemergence; format: in vivo, Galium aparine; conditions: 10 days
Summary of the method: as §2

wheat [23] = assay: Test C preemergence; format: in vivo, Triticum aestivum; conditions: 0 to 100 scale (0 no effect, 100 complete control)
Summary of the method: as §2

[24] = Preemergence, 500 g ai/ha, visual rating after 10 days
[25] = Test C, preemergence, 125 g ai/ha
[26] = 125 g ai/ha, postemergence, 0 to 100 scale, 0 no effect, 100 complete control
[27] = Postemergence, 500 g ai/ha, visual 0 to 100 scale (0 no effect, 100 complete control)

`Cc1cccc2c1O[C@@H](C)CN2C(=O)c1cc(-n2cnc(C(C)C)n2)cc2ccoc12` [Compound 227] was tested, and the “Plant response rating, Sedge, Umbrella (Flood)” value (sedge, umbrella) was 98, the “Plant response rating, Ducksalad (Flood)” value (ducksalad) was 80 and the “Plant response rating, Ryegrass, Italian” value (ryegrass, Italian [1]; [24]) was 90. The “Ryegrass, Italian plant response rating” value (ryegrass, Italian [1]; [25]) was 90, the “Plant response rating, Ragweed” value (ragweed [2]; [24]) was 50 and the “Ragweed plant response rating” value (ragweed [2]; [25]) was 0. The “Plant response rating, Kochia” value (kochia [3]; [26]) was 90, the “Plant response rating, Kochia” value (kochia [3]; [27]) was 100 and the “Plant response rating, Oat, Wild” value (oat, wild [4]; [24]) was 90. For the same compound, the “Oat, Wild plant response rating” value (oat, wild [4]; [25]) was 90, the “Plant response rating, Foxtail, Green” value (green foxtail [5]; [26]) was 80 and the “Plant response rating, Foxtail, Green” value (green foxtail [5]; [27]) was 90. The “Plant response rating, Ragweed” value (ragweed [6]; [26]) was 10, the “Plant response rating, Ragweed” value (ragweed [6]; [27]) was 50 and the “Plant response rating, Blackgrass” value (blackgrass [7]; [24]) was 90. For the same compound, the “Blackgrass plant response rating” value (blackgrass [7]; [25]) was 80, the “Plant response rating, Barnyardgrass” value (barnyardgrass [8]; [26]) was 40 and the “Plant response rating, Barnyardgrass” value (barnyardgrass [8]; [27]) was 70. For the same compound, the “Plant response rating, Barnyardgrass (Flood)” value (barnyardgrass [9]) was 50, the “Plant response rating, Corn” value (corn [10]; [24]) was 60 and the “Corn plant response rating” value (corn [10]; [25]) was 50. For the same compound, the “Plant response rating, Horseweed” value (horseweed; [26]) was 20, the “Plant response rating, Horseweed” value (horseweed; [27]) was 40 and the “Plant response rating, Kochia” value (kochia [11]; [24]) was 100. For the same compound, the “Kochia plant response rating” value (kochia [11]; [25]) was 90, the “Plant response rating, Ryegrass, Italian” value (ryegrass, Italian [12]; [26]) was 90 and the “Plant response rating, Ryegrass, Italian” value (ryegrass, Italian [12]; [27]) was 100. For the same compound, the “Plant response rating, Blackgrass” value (blackgrass [13]; [26]) was 50, the “Plant response rating, Blackgrass” value (blackgrass [13]; [27]) was 80 and the “Plant response rating, Corn” value (corn [14]; [26]) was 20. For the same compound, the “Plant response rating, Corn” value (corn [14]; [27]) was 80, the “Plant response rating, Oat, Wild” value (oat, wild [15]; [26]) was 30 and the “Plant response rating, Oat, Wild” value (oat, wild [15]; [27]) was 60. The “Plant response rating, Foxtail, Green” value (green foxtail [16]; [24]) was 100, the “Foxtail, Green plant response rating” value (green foxtail [16]; [25]) was 100 and the “Plant response rating, Soybean” value (soybean [17]; [26]) was 100. The “Plant response rating, Soybean” value (soybean [17]; [27]) was 100, the “Plant response rating, Rice (Flood)” value (rice) was 10 and the “Plant response rating, Soybean” value (soybean [18]; [24]) was 90. The “Soybean plant response rating” value (soybean [18]; [25]) was 70, the “Plant response rating, Barnyardgrass” value (barnyardgrass [19]; [24]) was 90 and the “Barnyardgrass plant response rating” value (barnyardgrass [19]; [25]) was 80. For the same compound, the “Plant response rating, Pigweed, Palmer” value (pigweed, palmer [20]; [26]) was 100, the “Plant response rating, Pigweed, Palmer” value (pigweed, palmer [20]; [27]) was 100 and the “Plant response rating, Pigweed, Palmer” value (pigweed, palmer [21]; [24]) was 100. The “Pigweed, Palmer plant response rating” value (pigweed, palmer [21]; [25]) was 90, the “Plant response rating, Wheat” value (wheat [22]; [26]) was 20 and the “Plant response rating, Wheat” value (wheat [22]; [27]) was 60. For the same compound, the “Plant response rating, Galium” value (galium; [26]) was 100, the “Plant response rating, Galium” value (galium; [27]) was 100 and the “Plant response rating, Wheat” value (wheat [23]; [24]) was 30. The “Wheat plant response rating” value (wheat [23]; [25]) was 0.
